test system: p-IKKα levels in L363 (NIK translocated multiple myeloma) cells; test: Effect of compounds on p-IKKα levels in L363 cells (AlphaLISA SureFire Ultra); format: cell-based, human; settings: Homo sapiens, L-363, 6 h, BAFF stimulated, MG132, 6 h, average of values, read-out: Assay 2 IC50
Protocol: Effect of Compounds on p-IKKα Levels in L363 (NIK Translocated Multiple Myeloma) Cells
All compounds tested were dissolved and serially diluted in DMSO, 1:3 dilution for 11 points in an Echo compatible plate. 100% DMSO was added to columns 12 and 24 of the plate to serve as high and low signal controls. This compound plate was used to spot 20 nL of compound or DMSO into a Greiner 384 well TC plate (781080). The final DMSO concentration was 0.3% (v/v) in cell assays. Human L363 cells (ATCC) were cultured in RPM11640 medium supplemented with GlutaMax, non-essential amino acids, sodium pyruvate and 10% fetal bovine serum. Cells were routinely maintained at densities of […] at 37° C. in a humidified 5% CO2 atmosphere incubator. Cells were passaged twice a week splitting back to obtain the low density. The day before the assay, cells were washed twice in HBSS (Hank's Balanced Salt Solution), resuspended in Dulbecco's Modified Eagle Medium (DMEM)+0.5% IgG and protease free BSA (Jackson Immuno Research Laboratories), +/−250 ng/ml recombinant human B-cell activating factor (BAFF/BLyS/TNFSF13B) and incubated overnight at 37° C. in a humidified 5% CO2 atmosphere (bulk stimulation with or without BAFF). The next day, the cell concentration was adjusted to 1×10^7 cells/ml in DMEM+/−250 ng/ml BAFF+/−10 μM MG132 and plated at 10 μl/well into compound or DMSO spotted 384 well TC plates. Seeded cells were incubated at 37° C. in a humidified 5% CO2 atmosphere for 6 h. After 6 h, the plates were removed from the incubator and cell lysis was achieved by the addition of 2.5 μl 5× lysis buffer containing protease and phosphatase inhibitors, followed by shaking on a plate shaker at room temperature for 15 min. At the end of this incubation, lysed cells were sequentially treated and incubated with acceptor and donor bead mixes according to the manufacturer's protocol for a 1 plate/2-incubation suspension cell assay (AlphaLISA SureFire Ultra p-IKKa (Ser 176/180) Assay Kit (Perkin Elmer). Plates were read using an EnVision® Multilabel Plate Reader (Perkin Elmer). Within an experiment, a concentration response curve for each compound was run in duplicate. The signal obtained in the test wells was normalized using high signal (BAFF stimulated cells, DMSO, MG132) and low signal (unstimulated cells, DMSO) controls. To determine the IC50, a sigmoidal curve was fitted to the plot of % inhibition versus Log10 compound concentration.

SMILES	IC50 [nM]
CN1CC[C@@](C#Cc2cccc(-c3ccc4ncnc(N)c4n3)c2)(C(F)F)C1=O [Example 205, (S)-3-((3-(4-Aminopyrido[3,2-d]pyrimidin-6-yl)phenyl)ethynyl)-3-(difluoromethyl)-1-methylpyrrolidin-2-one]	> 5000
[2H]c1nc(N)c2nc(-c3cccc(C#C[C@@]4(O)C[C@H](C)N(C)C4=O)c3)ccc2n1 [Example 263, (3S,5S)-3-((3-(4-Aminopyrido[3,2-d]pyrimidin-6-yl-2-d)phenyl)ethynyl)-3-hydroxy-1,5-dimethylpyrrolidin-2-one]	4350
CN1CC[C@@](O)(C#Cc2cccc(-c3nc4c(N)nccc4[nH]3)c2)C1=O [Example 59, (R)-3-[2-[3-(4-Amino-1H-imidazo[4,5-c]pyridin-2-yl)phenyl]ethynyl]-3-hydroxy-1-methyl-pyrrolidin-2-one]	> 5000
CN1CC[C@@](O)(C#Cc2cccc(-c3ccc4ncncc4n3)c2)C1=O [Example 223]	> 5000
[2H]c1nc(N)c2nc(-c3cccc(C#C[C@@]4(O)CCCN(C)C4=O)c3)ccc2n1 [Example 199, (S)-3-((3-(4-Aminopyrido[3,2-d]pyrimidin-6-yl-2-d)phenyl)ethynyl)-3-hydroxy-1-methylpiperidin-2-one]	> 5000

Results, then the compound that gave them:

IC50 [nM]	SMILES
120	COc1cc(-c2cccc(C#C[C@]3(O)CCN(C)C3=O)c2)cc2c(N)ncnc12 [Example 114, (R)-3-((3-(4-Amino-8-methoxyquinazolin-6-yl)phenyl)ethynyl)-3-hydroxy-1-methylpyrrolidin-2-one]
13	CN1CC[C@@](O)(C#Cc2cccc(-c3cc(-c4ccccc4)c4ncnc(N)c4n3)c2)C1=O [Example 310, (R)-3-((3-(4-Amino-8-phenylpyrido[3,2-d]pyrimidin-6-yl)phenyl)ethynyl)-3-hydroxy-1-methylpyrrolidin-2-one]
350	COC1CN(c2ncnc3ccc(-c4cccc(C#C[C@]5(O)CCN(C)C5=O)c4)nc23)C1 [Example 230, (R)-3-Hydroxy-3-((3-(4-(3-methoxyazetidin-1-yl)pyrido[3,2-d]pyrimidin-6-yl)phenyl)ethynyl)-1-methylpyrrolidin-2-one]
660	[2H]c1nc(N)c2nc(-c3cccc(C#C[C@@]4(O)C[C@@H](C)N(C)C4=O)c3)ccc2n1 [Example 264, (3S,5R)-3-((3-(4-Aminopyrido[3,2-d]pyrimidin-6-yl-2-d)phenyl)ethynyl)-3-hydroxy-1,5-dimethylpyrrolidin-2-one]
7.7	[2H]c1nc(N)c2nc(-c3cccc(C#C[C@]4(O)C[C@@H](C)N(C)C4=O)c3)ccc2n1 [Example 261, (3R,5R)-3-((3-(4-Aminopyrido[3,2-d]pyrimidin-6-yl-2-d)phenyl)ethynyl)-3-hydroxy-1,5-dimethylpyrrolidin-2-one]
65	[2H]c1nc(NC(C)=O)c2nc(-c3cccc(C#C[C@]4(O)CCN(C)C4=O)c3)ccc2n1 [Example 259, (R)—N-(6-(3-((3-Hydroxy-1-methyl-2-oxopyrrolidin-3-yl)ethynyl)phenyl)pyrido[3,2-d]pyrimidin-4-yl-2-d)acetamide]
3	CN1CC[C@@](O)(C#Cc2cccc(-c3ccc4ncnc(N)c4n3)c2)C1=O [Example 12, (R)-3-((3-(4-Aminopyrido[3,2-d]pyrimidin-6-yl)phenyl)ethynyl)-3-hydroxy-1-methylpyrrolidin-2-one]
73	CC(=O)Nc1ncnc2ccc(-c3cccc(C#C[C@]4(O)CCN(C)C4=O)c3)nc12 [Example 238, (R)—N-(6-(3-((3-Hydroxy-1-methyl-2-oxopyrrolidin-3-yl)ethynyl)phenyl)pyrido[3,2-d]pyrimidin-4-yl)acetamide]
220	[2H]c1nc(N)c2nc(-c3cccc(C#C[C@]4(O)C[C@H](C)N(C)C4=O)c3)ccc2n1 [Example 262, (3R,5S)-3-((3-(4-Aminopyrido[3,2-d]pyrimidin-6-yl-2-d)phenyl)ethynyl)-3-hydroxy-1,5-dimethylpyrrolidin-2-one]
47	Cc1cc(C#C[C@]2(O)CCN(C)C2=O)cc(-c2nc3c(N)ncnc3s2)c1 [Example 153, (R)-3-((3-(7-Aminothiazolo[5,4-d]pyrimidin-2-yl)-5-methylphenyl)ethynyl)-3-hydroxy-1-methylpyrrolidin-2-one]
670	[2H]c1nc(N)c2nc(-c3cccc(C#C[C@@]4(O)CCN(C)C4=O)c3)ccc2n1 [Example 9, (S)-3-((3-(4-Aminopyrido[3,2-d]pyrimidin-6-yl-2-d)phenyl)ethynyl)-3-hydroxy-1-methylpyrrolidin-2-one]
3.3	[2H]c1nc(N)c2nc(-c3cccc(C#C[C@]4(O)CCN(C)C4=O)c3)ccc2n1 [Example 8, (R)-3-((3-(4-Aminopyrido[3,2-d]pyrimidin-6-yl-2-d)phenyl)ethynyl)-3-hydroxy-1-methylpyrrolidin-2-one]
3850	[2H]c1nc(NS(C)(=O)=O)c2nc(-c3cccc(C#C[C@]4(O)CCN(C)C4=O)c3)ccc2n1 [Example 269, (R)—N-(6-(3-((3-Hydroxy-1-methyl-2-oxopyrrolidin-3-yl)ethynyl)phenyl)pyrido[3,2-d]pyrimidin-4-yl-2-d)methanesulfonamide]

biological target: recombinant human NF-kappaB-inducing kinase (NIK/MAP3K14) (Homo sapiens (Human), UniProt Q99558); test: Inhibition of auto-phosphorylation of recombinant human NIK/MAP3K14 (AlphaScreen); format: biochemical; settings: NIK auto-phosphorylation, 5 μM ATP, 1 nM NIK, 2 h at 25° C.; average of values
Protocol: Inhibition of auto-phosphorylation of recombinant human NF-kappaB-inducing kinase (NIK/MAP3K14) activity (AlphaScreen®)
NIK/MAP3K14 auto-phosphorylation activity was measured using the AlphaScreen® (αscreen) format (Perkin Elmer). All compounds tested were dissolved in dimethyl sulfoxide (DMSO) and further dilutions were made in assay buffer. The final DMSO concentration was 0.7% (v/v) in assays. The assay buffer was 50 mM Tris pH 7.5 containing 1 mM EGTA (ethylene glycol tetraacetic acid), 1 mM DTT (dithiothreitol), 0.1 mM Na3VO4, 5 mM MgCl2, and 0.01% Tween® 20. The assays were carried out in 384 well Proxiplates (Perkin Elmer). The incubations consisted of the compound, 5 μM Adenosine-5′-triphosphate (ATP), and 1 nM NIK/MAP3K14. Incubations were initiated by the addition of GST-tagged NIK/MAP3K14 enzyme, carried out for 2 h at 25° C. and terminated by addition of stop buffer containing anti-phospho-IKK Ser176/180 antibody. Protein A Acceptor and Glutathione-Donor beads were added before reading using an EnVision® Multilabel Plate Reader (Perkin Elmer). […] IC50's were determined by fitting a sigmoidal curve to % inhibition of control versus Log10 compound concentration.

Sequence of recombinant human NF-kappaB-inducing kinase (NIK/MAP3K14) (Q99558 whole entry): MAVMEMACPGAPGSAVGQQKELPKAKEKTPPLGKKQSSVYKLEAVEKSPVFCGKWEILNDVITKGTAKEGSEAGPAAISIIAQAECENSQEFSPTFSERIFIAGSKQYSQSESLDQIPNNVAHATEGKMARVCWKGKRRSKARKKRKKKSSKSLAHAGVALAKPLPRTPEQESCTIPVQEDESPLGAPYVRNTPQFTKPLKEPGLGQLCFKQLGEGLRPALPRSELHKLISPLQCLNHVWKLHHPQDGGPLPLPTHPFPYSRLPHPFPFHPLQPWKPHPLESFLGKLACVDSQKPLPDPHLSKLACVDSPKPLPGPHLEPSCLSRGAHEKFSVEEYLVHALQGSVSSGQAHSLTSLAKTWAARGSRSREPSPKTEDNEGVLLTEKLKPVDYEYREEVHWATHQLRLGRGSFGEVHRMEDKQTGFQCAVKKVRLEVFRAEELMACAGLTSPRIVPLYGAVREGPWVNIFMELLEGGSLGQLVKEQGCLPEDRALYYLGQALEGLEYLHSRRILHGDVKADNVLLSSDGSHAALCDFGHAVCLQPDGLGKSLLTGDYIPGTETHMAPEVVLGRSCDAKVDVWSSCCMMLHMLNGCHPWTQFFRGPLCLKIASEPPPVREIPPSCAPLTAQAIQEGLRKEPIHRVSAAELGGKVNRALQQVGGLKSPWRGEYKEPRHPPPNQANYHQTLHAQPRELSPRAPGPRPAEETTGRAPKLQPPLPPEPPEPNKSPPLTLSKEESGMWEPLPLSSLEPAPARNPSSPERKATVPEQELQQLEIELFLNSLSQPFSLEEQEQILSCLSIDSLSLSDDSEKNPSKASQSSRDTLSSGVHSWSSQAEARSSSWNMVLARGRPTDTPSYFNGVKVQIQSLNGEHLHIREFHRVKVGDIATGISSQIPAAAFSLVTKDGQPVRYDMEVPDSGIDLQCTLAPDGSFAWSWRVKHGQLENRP

SMILES	IC50 [nM]
CN1CC[C@@](C#Cc2cccc(-c3ccc4ncnc(N)c4n3)c2)(C(F)F)C1=O [Example 205, (S)-3-((3-(4-Aminopyrido[3,2-d]pyrimidin-6-yl)phenyl)ethynyl)-3-(difluoromethyl)-1-methylpyrrolidin-2-one]	4880
Cc1cc2cnc(-c3cccc(C#C[C@]4(O)CCN(C)C4=O)c3)nc2c(N)n1 [Example 44, (R)-3-((3-(8-Amino-6-methylpyrido[3,4-d]pyrimidin-2-yl)phenyl)ethynyl)-3-hydroxy-1-methylpyrrolidin-2-one]	43
Cc1ccc(C#C[C@@]2(O)C(=O)N(C)[C@@H]3C[C@@H]32)cc1-c1nc2c(N)ncnc2s1 [Example 318, (1R,4R,5S)-4-((3-(7-Aminothiazolo[5,4-d]pyrimidin-2-yl)-4-methylphenyl)ethynyl)-4-hydroxy-2-methyl-2-azabicyclo[3.1.0]hexan-3-one]	1
CN1CC[C@@](O)(C#Cc2cccc(-c3cc(N4CC(C(F)(F)F)C4)c4ncnc(N)c4n3)c2)C1=O [Example 315, (R)-3-[2-[3-[4-Amino-8-[3-(trifluoromethyl)azetidin-1-yl]pyrido[3,2-d]pyrimidin-6-yl]phenyl]ethynyl]-3-hydroxy-1-methyl-pyrrolidin-2-one]	5
CN1CC[C@@](O)(C#Cc2cccc(-c3cc(NCC(F)(F)F)c4ncnc(N)c4n3)c2)C1=O [Example 317, (R)-3-((3-(4-Amino-8-((2,2,2-trifluoroethyl)amino)pyrido[3,2-d]pyrimidin-6-yl)phenyl)ethynyl)-3-hydroxy-1-methylpyrrolidin-2-one]	0.6
Nc1nccc2cnc(-c3cccc(C#CC4(O)CCc5cccnc54)c3)nc12 (stereo in doubt) [Example 46, (S)-7-[2-[3-(8-Aminopyrido[3,4-d]pyrimidin-2-yl)phenyl]ethynyl]-5,6-dihydrocyclopenta[b]pyridin-7-ol]	2030
CN1CC[C@@](O)(C#Cc2cccc(-c3cc(C(F)F)c4ncnc(N)c4n3)c2)C1=O [Example 289, (R)-3-((3-(4-Amino-8-(difluoromethyl)pyrido[3,2-d]pyrimidin-6-yl)phenyl)ethynyl)-3-hydroxy-1-methylpyrrolidin-2-one]	1.4
Cc1ccc(C#C[C@]2(O)C[C@@H](C)N(C)C2=O)cc1-c1nc2c(N)ncnc2s1 [Example 319, (3R,5R)-3-((3-(7-Aminothiazolo[5,4-d]pyrimidin-2-yl)-4-methylphenyl)ethynyl)-3-hydroxy-1,5-dimethylpyrrolidin-2-one]	1.5

The remaining lines, values ahead:

IC50 [nM]	SMILES
≤ 0.5	COc1cc(-c2cccc(C#C[C@]3(O)CCN(C)C3=O)c2)cc2c(N)ncnc12 [Example 114, (R)-3-((3-(4-Amino-8-methoxyquinazolin-6-yl)phenyl)ethynyl)-3-hydroxy-1-methylpyrrolidin-2-one]
0.7	CN1CC[C@@](O)(C#Cc2cccc(-c3cc(-c4ccccc4)c4ncnc(N)c4n3)c2)C1=O [Example 310, (R)-3-((3-(4-Amino-8-phenylpyrido[3,2-d]pyrimidin-6-yl)phenyl)ethynyl)-3-hydroxy-1-methylpyrrolidin-2-one]

Source: US20240199605A1, “SMALL MOLECULAR INHIBITORS OF NF-kB INDUCING KINASE” (Janssen Pharmaceutica NV, priority 2019, published 2024)
